# Measurements: patent publication US20130035232A1, “INDUCTION AND STABILIZATION OF ENZYMATIC ACTIVITY IN MICROORGANISMS” (GEORGIA STATE UNIVERSITY RESEARCH FOUNDATION, INC., priority 2010, published 2013)
# Legend:
# asparaginase I [1] = test: Asparaginase I production on supplemented medium; type: cell-based; details: YEMEA, 7.5 g/L urea, 10 ppm cobalt
# Protocol: The induction of asparaginase I production in various nitrile hydratase producing microorganisms was evaluated. All strains were grown on YEMEA medium containing 7.5 g/L of urea and 10 ppm cobalt (provided as cobalt chloride) supplemented with asparagine (ASN), glutamine (GLN), or both asparagine and glutamine. The asparagine and glutamine were added at a concentration of 3.8 mM. As a comparative, enzyme production was also evaluated with supplementation with acrylonitrile (AN), acrylamide (AMD) or acrylonitrile and acrylamide. Growth temperature was in the range of 26° C. to 30° C.
# asparaginase I [2] = test: Effect of inducer and media composition on asparaginase I production; type: cell-based, Rhodococcus sp. DAP 96253; details: Rhodococcus sp. DAP 96253, inducer 1000 ppm
# Protocol: Testing was performed to evaluate the effect on asparaginase I activity based upon the inducer used. In particular, testing was performed using asparagine, glutamine, succinonitrile, and isovaleronitrile as inducers (all added at 1000 ppm each).
# nitrile hydratase = test: Nitrile hydratase production on supplemented medium; type: cell-based; details: YEMEA, urea, cobalt, supplement 3.8 mM
# Protocol: The induction of nitrile hydratase production and amidase production in various nitrile hydratase producing microorganisms was evaluated. All strains were grown on YEMEA medium containing 7.5 g/L of urea and 10 ppm cobalt (provided as cobalt chloride) supplemented with asparagine (ASN), glutamine (GLN), or both asparagine and glutamine. The asparagine and glutamine were added at a concentration of 3.8 mM. As a comparative, enzyme production with no supplementation was also tested. Growth temperature was in the range of 26° C. to 30° C.
# amidase [3] = test: Amidase induction by inducers (Example 1); type: cell-based, Rhodococcus sp., strain DAP 96253
# Protocol: The induction of nitrile hydratase activity and amidase activity in Rhodococcus sp., strain DAP 96253, was evaluated using multiple types of inducers (1000 ppm). Three different samples were cultured in YEMEA medium containing 10 ppm cobalt and 7.5 g/L urea and supplemented with acrylonitrile, asparagine, or glutamine. The specific nitrile hydratase activity and the specific amidase activity in each sample was evaluated, and the results are provided below in Table 3, with activities provided in units/mg cdw (cell dry weight). One unit of nitrile hydratase activity relates to the ability to convert 1 μmol of acrylonitrile to its corresponding amide per minute, per milligram of cells (dry weight) at a pH of 7.0 and a temperature of 30° C. One unit of amidase activity relates to the ability to convert 1 μmol of acrylamide to its corresponding acid per minute, per milligram of cells (dry weight) pH of 7.0 and a temperature of 30° C.
# amidase [4] = test: 20 liter fermentation with asparagine feed: amidase; type: cell-based, Rhodococcus sp. DAP 96253; details: end of 20 liter fermentation; asparagine 0.15M at 1000 μl/min from t=10 hour
# Protocol: Rhodococcus sp. DAP 96253 were grown using biphasic medium as the source of inoculum for a 20 liter fermentation. The supplemental addition of medium/carbohydrate (either YEMEA, dextrose or maltose) was made to the modified R2A medium, containing cottonseed hydrolysate substituted for the Proteos Peptone 3 (PP3). Asparagine (0.15M solution) was added at a continuous rate of 1000 μl/min beginning at t=10 hour. At the end of the fermentation run, 159 units per milligram cell dry weight of acrylonitrile specific nitrile hydratase, 22 units of amidase per milligram cell dry weight, and 16 g/l cell packed wet weight were produced.
# [5] = tested on: Pseudomonas chloroaphis ATCC 13985; test: Growth on supplemented YEMEA (visual grade); type: cell-based; set-up: key: (−) meaning no detectable growth; (+/−) meaning scant growth; (+) meaning little growth; (++) meaning good growth; (+++) meaning very good growth; (++++) meaning excellent growth; details: 26 °C, 7.5 g/L urea, 10 ppm cobalt, supplement 3.8 mM
# Protocol: (§1) The relative growth of various nitrile hydratase producing microorganisms was evaluated. All strains were grown on YEMEA medium containing 7.5 g/L of urea and 10 ppm cobalt (provided as cobalt chloride) supplemented with asparagine (ASN), glutamine (GLN), or both asparagine and glutamine. The asparagine and glutamine were added at a concentration of 3.8 mM. Growth temperature was in the range of 26° C. to 30° C. Growth was evaluated by visual inspection and graded on the following scale: (−) meaning no detectable growth; (+/−) meaning scant growth; (+) meaning little growth; (++) meaning good growth; (+++) meaning very good growth; and (++++) meaning excellent growth.
# [6] = tested on: Brevibacterium ketoglutaricum ATCC 21533; test: Growth on supplemented YEMEA (visual grade); type: cell-based; set-up: key: (−) meaning no detectable growth; (+/−) meaning scant growth; (+) meaning little growth; (++) meaning good growth; (+++) meaning very good growth; (++++) meaning excellent growth; details: 30 °C, 7.5 g/L urea, 10 ppm cobalt, supplement 3.8 mM
# Protocol: as §1
# [7] = tested on: Rhodococcus erythropolis ATCC 47072; test: Growth on supplemented YEMEA (visual grade); type: cell-based; set-up: key: (−) meaning no detectable growth; (+/−) meaning scant growth; (+) meaning little growth; (++) meaning good growth; (+++) meaning very good growth; (++++) meaning excellent growth; details: 26 °C, 7.5 g/L urea, 10 ppm cobalt, supplement 3.8 mM
# Protocol: as §1
# [8] = tested on: Rhodococcus sp. DAP 96253 ATCC 55899; test: Growth on supplemented YEMEA (visual grade); type: cell-based; set-up: key: (−) meaning no detectable growth; (+/−) meaning scant growth; (+) meaning little growth; (++) meaning good growth; (+++) meaning very good growth; (++++) meaning excellent growth; details: 30 °C, 7.5 g/L urea, 10 ppm cobalt, supplement 3.8 mM
# Protocol: as §1
# [9] = tested on: Rhodococcus rhodochrous DAP 96622 ATCC 55898; test: Growth on supplemented YEMEA (visual grade); type: cell-based; set-up: key: (−) meaning no detectable growth; (+/−) meaning scant growth; (+) meaning little growth; (++) meaning good growth; (+++) meaning very good growth; (++++) meaning excellent growth; details: 26 °C, 7.5 g/L urea, 10 ppm cobalt, supplement 3.8 mM
# Protocol: as §1
# [10] = tested on: Pseudomonas chloroaphis ATCC 43051; test: Growth on supplemented YEMEA (visual grade); type: cell-based; set-up: key: (−) meaning no detectable growth; (+/−) meaning scant growth; (+) meaning little growth; (++) meaning good growth; (+++) meaning very good growth; (++++) meaning excellent growth; details: 30 °C, 7.5 g/L urea, 10 ppm cobalt, supplement 3.8 mM
# Protocol: as §1
# [11] = Brevibacterium ketoglutaricum ATCC 21533, 30 °C
# [12] = Pseudomonas chloroaphis ATCC 13985, 26 °C
# [13] = Pseudomonas chloroaphis ATCC 43051, 30 °C
# [14] = Rhodococcus erythropolis ATCC 47072, 26 °C
# [15] = Rhodococcus rhodochrous DAP 96622 ATCC 55898, 26 °C
# [16] = Rhodococcus sp. DAP 96253 ATCC 55899, 30 °C
compound,measurement,setting,value
"NC(=O)C[C@H](N)C(=O)O [Asparagine, asparagine]",Asparaginase I Level Based on Growth Medium Supplementation,asparaginase I [1]; [11],19.1 Units/mg cdw
same,Asparaginase I Level Based on Growth Medium Supplementation,asparaginase I [1]; [12],0 Units/mg cdw
same,Asparaginase I Level Based on Growth Medium Supplementation,asparaginase I [1]; [13],18.4 Units/mg cdw
same,Asparaginase I Level Based on Growth Medium Supplementation,asparaginase I [1]; [14],1 Units/mg cdw
same,Asparaginase I Level Based on Growth Medium Supplementation,asparaginase I [1]; [15],12.3 Units/mg cdw
same,Asparaginase I Level Based on Growth Medium Supplementation,asparaginase I [1]; [16],12.5 Units/mg cdw
same,"Asparaginase I levels, YEMEA - Glucose With Cobalt","asparaginase I [2]; YEMEA - Glucose, with cobalt",6.5 units/mg cell dry weight
same,"Asparaginase I levels, YEMEA - Glucose Without Cobalt","asparaginase I [2]; YEMEA - Glucose, without cobalt",5.3 units/mg cell dry weight
same,"Asparaginase I levels, YEMEA - Maltose With Cobalt","asparaginase I [2]; YEMEA - Maltose, with cobalt",24.6 units/mg cell dry weight
same,"Asparaginase I levels, YEMEA - Maltose Without Cobalt","asparaginase I [2]; YEMEA - Maltose, without cobalt",8.7 units/mg cell dry weight
same,Nitrile Hydratase Level Based on Growth Medium Supplementation,nitrile hydratase; [11],30 Units/mg cdw
same,Nitrile Hydratase Level Based on Growth Medium Supplementation,nitrile hydratase; [12],14 Units/mg cdw
same,Nitrile Hydratase Level Based on Growth Medium Supplementation,nitrile hydratase; [13],28 Units/mg cdw
same,Nitrile Hydratase Level Based on Growth Medium Supplementation,nitrile hydratase; [14],48 Units/mg cdw
same,Nitrile Hydratase Level Based on Growth Medium Supplementation,nitrile hydratase; [15],158 Units/mg cdw
same,Nitrile Hydratase Level Based on Growth Medium Supplementation,nitrile hydratase; [16],155 Units/mg cdw
same,Amidase Activity,"amidase [3]; Rhodococcus sp. DAP 96253, YEMEA, 10 ppm cobalt, 7.5 g/L urea, inducer 1000 ppm",13.24 Units/mg cdw
same,amidase activity greater than that resulting from acrylonitrile,"amidase [3]; relative to acrylonitrile as inducer, 1000 ppm",approximately 74%
same,amidase produced,amidase [4],22 units per milligram cell dry weight
same,Growth,[5],+
same,Growth,[6],+
same,Growth,[7],++
same,Growth,[8],++++
same,Growth,[9],++++
same,Growth,[10],+
